{"source": "patent US20080132533A1", "about": "“Solid Dispersion Comprising Tacrolimus and Entericcoated Macromolecule” (GL PharmTech Corp., priority 2005, published 2008)", "key": {"[1]": {"conditions": "background art; mass unit printed as an image character; cited from earlier work"}, "[2]": {"assay": "Dynamic solubility test in water", "type": "physicochemical", "conditions": "thermodynamic from solid, 100 mL water, 37° C., 200 rpm, read-out: Solubility of tacrolimus (mean ± SD)", "method": "The excessive specimens were loaded and appropriate aliquots were collected after 0.5, 1, 2, 4, and 8 hours, and the samples were analyzed by high performance liquid chromatography."}}}
{"smiles": "C=CC[C@@H]1/C=C(\\C)C[C@H](C)C[C@H](OC)[C@H]2O[C@@](O)(C(=O)C(=O)N3CCCC[C@H]3C(=O)O[C@H](/C(C)=C/[C@@H]3CC[C@@H](O)[C@H](OC)C3)[C@H](C)[C@@H](O)CC1=O)[C@H](C)C[C@@H]2OC", "note": "[Control, tacrolimus]", "values": [{"measurement": "Solubility of tacrolimus in water", "setting": "[1]", "result": "1˜2 /mL"}, {"measurement": "solubility at 1 h", "setting": "[2]; 1 hr", "result": "0.28 ± 0.05", "unit": "µg/mL"}, {"measurement": "solubility at 2 h", "setting": "[2]; 2 hr", "result": "0.68 ± 0.02", "unit": "µg/mL"}, {"measurement": "solubility at 4 h", "setting": "[2]; 4 hr", "result": "0.74 ± 0.01", "unit": "µg/mL"}, {"measurement": "solubility at 8 h", "setting": "[2]; 8 hr", "result": "0.96 ± 0.05", "unit": "µg/mL"}]}
